In series [1] the test system is ICAM-1 mRNA. The series is described as follows: Northern blot of ICAM-1 mRNA in C8161 cells. The series is classed as cell-based, human. The settings on record: Northern blot analysis. As to the method:
(§1) ICAM-1 expression on the cell surface was measured by ELISA. Cells were treated with increasing concentrations of antisense oligonucleotides in the presence of 15 μg/ml Lipofectin for 4 hours at 37° C. ICAM-1 expression was induced by incubation with 5 ng/ml TNF-α for 16 hours. Cells were washed 3× in DPBS and fixed for 20 minutes in 2% formaldehyde. Cells were washed in DPBS, blocked with 2% BSA for 1 hour at 37° C. and incubated with ICAM-1 monoclonal antibody 84H10 (AMAC, Inc., Westbrook, Me.). Detection of bound antibody was determined by incubation with a biotinylated goat anti-mouse IgG followed by incubation with […] streptavidin and developed with chlorophenol red-β-D-galactopyranoside and quantified by absorbance at 575 nm. ICAM-1 mRNA levels were measured by Northern blot analysis.

The test system of series [2] is ICAM-1. Nature of the series: ELISA of ICAM-1 cell surface expression in C8161 human melanoma cells. Type of series: cell-based. Conditions: 15 μg/ml Lipofectin, 5 ng/ml TNF-α 16 hours. As to the method:
as §1
The data were expressed as percentage of control activity, calculated as follows: (ICAM-1 expression for oligonucleotide-treated, cytokine-induced cells)−(basal ICAM-1 expression)/(ICAM-1 cytokine-induced expression)−(basal ICAM-1 expression)×100.
Background: In an ELISA, binding on a coated surface is turned into a signal by an enzyme label.

For series [3], the system named is ICAM-1. Nature of the series: ELISA of ICAM-1 expression in A431 cells. The series is classed as cell-based. Conditions: human epidermal carcinoma A431 cells. The protocol: Expression of ICAM-1, VCAM-1 and ELAM-1 on the surface of cells can be quantitated using specific monoclonal antibodies in an ELISA. Cells are grown to confluence in 96 well microtiter plates. The cells are stimulated with either interleukin-1 or tumor necrosis factor for 4 to 8 hours to quantitate ELAM-1 and 8 to 24 hours to quantitate ICAM-1 and VCAM-1. Following the appropriate incubation time with the cytokine, the cells are gently washed three times with a buffered isotonic solution containing calcium and magnesium such as Dulbecco's phosphate buffered saline (D-PBS). The cells are then directly fixed on the microtiter plate with 1 to 2% paraformaldehyde diluted in D-PBS for 20 minutes at 25° C. The cells are washed again with D-PBS three times. Nonspecific binding sites on the microtiter plate are blocked with 2% bovine serum albumin in D-PBS for 1 hour at 37° C. Cells are incubated with the appropriate monoclonal antibody diluted in blocking solution for 1 hour at 37° C. Unbound antibody is removed by washing the cells three times with D-PBS. Antibody bound to the cells is detected by incubation with a 1:1000 dilution of biotinylated goat anti-mouse IgG (Bethesda Research Laboratories, Gaithersburg, Md.) in blocking solution for 1 hour at 37° C. Cells are washed three times with D-PBS and then incubated with a 1:1000 dilution of streptavidin conjugated to β-galactosidase (Bethesda Research Laboratories) for 1 hour at 37° C. The cells are washed three times with D-PBS for 5 minutes each. The amount of β-galactosidase bound to the specific monoclonal antibody is determined by developing the plate in a solution of 3.3 mM chlorophenolred-β-D-galactopyranoside, 50 mM sodium phosphate, 1.5 mM MgCl2; pH=7.2 for 2 to 15 minutes at 37° C. The concentration of the product is determined by measuring the absorbance at 575 nm in an ELISA microtiter plate reader. […]
Cells grown in 96-well plates were washed three times with Opti-MEM (GIBCO, Grand Island, N.Y.) prewarmed to 37° C. […] ICAM-1 expression was determined as described in Example 1. […]

Series [4] deals with ICAM-1. The series is described as follows: ELISA screening for ICAM-1 expression in interleukin-1β-stimulated cells (HUVEC and A549). Type of series: cell-based, human. Conditions: for inhibition of ICAM-1 expression, relative activity in words: interleukin-1β-stimulated cells, two cell lines (HUVEC, A549); for inhibition of ICAM-1 expression after premixing with respective sense strand: premixed/prehybridized at equal molar concentrations with sense strand (ISIS 1575 or ISIS 2115).

Two substances from patent US6849612B2, “Oligonucleotide modulation of cell adhesion” (ISIS Pharmaceuticals, Inc., priority 1993, dated 2005) can be followed below.

Strand notation (5' to 3'): a small letter for the sugar, then the base; units joined by * are phosphorothioate-linked, units joined directly phosphodiester-linked; [ ] holds rarer units or linkages, { } end groups; capitals alone tell only the bases. d = 2'-deoxy (DNA)

On to “ISIS 1570: phosphorothioate, human ICAM-1 AUG Codon (64-81), SEQ ID NO 1, TGGGAGCCATAGCGAGGC (antisense dT*dG*dG*dG*dA*dG*dC*dC*dA*dT*dA*dG*dC*dG*dA*dG*dG*dC)”, for which the “ICAM-1 mRNA levels” value in series [1] was “decreased ICAM-1 mRNA levels only slightly”. In addition, the “cell surface expression of ICAM-1” value in series [2] is “decreased cell surface expression of ICAM-1”. Further, in series [3], the “inhibition of ICAM-1 expression” value is recorded as “inhibit ICAM-1 expression”. Besides, in series [4], the “inhibition of ICAM-1 expression, relative activity in words” value was “most active” and the “inhibition of ICAM-1 expression after premixing with respective sense strand” value was “blocked the effects of ISIS 1570”.

As to “ISIS 1939: P=S, human ICAM-1 3′-Untranslated (1952-1971), SEQ ID NO 15, CCCCCACCACTTCCCCTCTC (antisense dC*dC*dC*dC*dC*dA*dC*dC*dA*dC*dT*dT*dC*dC*dC*dC*dT*dC*dT*dC)”, the “ICAM-1 mRNA levels” value in series [1] was “markedly reduced”. In series [2], the “cell surface expression of ICAM-1” value is listed as “decreased cell surface expression of ICAM-1”. The “inhibition of ICAM-1 expression” value in series [3] is recorded as “inhibit ICAM-1 expression”. Besides, in series [4], the “inhibition of ICAM-1 expression, relative activity in words” value is reported as “most active” and the “inhibition of ICAM-1 expression after premixing with respective sense strand” value is listed as “completely blocked”.
